Data: ChEMBL document CHEMBL1126423, “Acid-catalyzed O-allylation of -hydroxy--amino acids: an entry into conformationally constrained dipeptide surrogates” (Bioorg Med Chem Lett, 1992)

Molecular target: T1, Angiotensin-converting enzyme (Oryctolagus cuniculus, UniProt P12822)
T1 sequence (P12822 whole entry): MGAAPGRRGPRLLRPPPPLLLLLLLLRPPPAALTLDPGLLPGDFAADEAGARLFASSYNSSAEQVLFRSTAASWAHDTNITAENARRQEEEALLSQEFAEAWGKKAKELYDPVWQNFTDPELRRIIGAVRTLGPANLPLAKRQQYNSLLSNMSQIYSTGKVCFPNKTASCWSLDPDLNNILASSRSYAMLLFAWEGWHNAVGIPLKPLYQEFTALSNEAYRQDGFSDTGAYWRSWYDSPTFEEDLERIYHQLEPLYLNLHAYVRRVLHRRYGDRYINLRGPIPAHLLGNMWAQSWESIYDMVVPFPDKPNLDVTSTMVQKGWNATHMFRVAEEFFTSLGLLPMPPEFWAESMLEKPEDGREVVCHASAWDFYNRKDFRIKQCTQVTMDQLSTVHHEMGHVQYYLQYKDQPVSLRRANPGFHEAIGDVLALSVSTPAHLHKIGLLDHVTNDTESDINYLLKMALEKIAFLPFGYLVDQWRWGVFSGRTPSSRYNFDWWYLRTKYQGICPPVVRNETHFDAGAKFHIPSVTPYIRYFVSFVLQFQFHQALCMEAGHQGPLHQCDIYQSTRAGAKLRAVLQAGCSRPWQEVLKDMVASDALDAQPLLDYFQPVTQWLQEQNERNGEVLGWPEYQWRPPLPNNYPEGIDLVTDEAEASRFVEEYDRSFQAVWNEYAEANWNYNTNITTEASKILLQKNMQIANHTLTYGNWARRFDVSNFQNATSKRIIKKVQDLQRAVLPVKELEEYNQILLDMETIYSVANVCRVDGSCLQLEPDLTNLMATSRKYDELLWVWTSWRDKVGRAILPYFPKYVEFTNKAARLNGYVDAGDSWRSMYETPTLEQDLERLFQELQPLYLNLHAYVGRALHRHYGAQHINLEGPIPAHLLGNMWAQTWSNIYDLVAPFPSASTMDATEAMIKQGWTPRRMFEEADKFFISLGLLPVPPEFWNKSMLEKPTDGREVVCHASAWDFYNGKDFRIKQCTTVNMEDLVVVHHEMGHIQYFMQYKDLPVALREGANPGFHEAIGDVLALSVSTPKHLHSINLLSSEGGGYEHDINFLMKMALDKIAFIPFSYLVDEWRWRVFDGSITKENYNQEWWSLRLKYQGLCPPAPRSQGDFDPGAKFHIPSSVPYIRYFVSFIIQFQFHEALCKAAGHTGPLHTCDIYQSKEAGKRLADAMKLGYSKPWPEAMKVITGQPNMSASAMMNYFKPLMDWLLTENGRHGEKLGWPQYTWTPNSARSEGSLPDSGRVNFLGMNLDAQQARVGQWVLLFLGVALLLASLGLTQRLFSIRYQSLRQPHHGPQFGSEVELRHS
Assay: Inhibitory concentration against rabbit lung Angiotensin I converting enzyme (ACE)

- IC50: 0.09 nM
Structure (SMILES): O=C(O)[C@H](CCc1ccccc1)NC1Cc2ccccc2C2COC[C@H](C(=O)O)N2C1=O (stereo partly specified)
